# Reference: US10100088B2, “Glycopeptide derivatives for the preservation and protection of biological materials and microorganisms” (TFCHEM, priority 2014, dated 2018)
# Where two headings read alike, the source gives them in different places.
# Columns and labels:
# [1] = Comparative stability towards basic conditions (NaOD in D2O), 1H NMR; assay type: physicochemical
# Procedure: In a first set of experiments (experiments 1 to 7 in table 9), X (10 mg, 1.72 10^−2 mmol) was reacted with 2 to 8 equivalents of NaOD in a total volume of 355 μL of deuterium oxide ([X]=4.8 10^−2 mmol·mL^−1) during 2 h 30 before being acidified with 1M DCl in D2O. To be sure that all compounds in solution are in their acidic form, the equivalents of DCl are adjusted to 3 more equivalents of DCl than the amount required to neutralize the solution (nDCl=nNaOD+3). The volume was adjusted to 544 μL with deuterium oxide.
# In a second set of experiments (experiments 8 to 14 in table 9), 17 (10 mg, 1.66 10^−2 mmol) was reacted with 2 to 8 equivalents of NaOD in a total volume of 343 μL of deuterium oxide ([17]=4.8 10^−2 mmol·mL^−1) during 2 h 30 before being acidified with 1M DCl in D2O. To be sure that all compounds in solution are in their acidic form, the equivalents of DCl are adjusted to 3 more equivalents of DCl than the amount required to neutralize the solution (nDCl=nNaOD+3). The volume was adjusted to 526 μL with deuterium oxide.
# ^1H NMR analyses were performed on each experiment. It is why experiments were realized in deuterium oxide and using 1M NaOD in D2O as base and 1M DCl in D2O as acid.
# ^1H NMR allows indeed the determination of the amount of compound X1 formed, by comparison between the integration corresponding to the methylene group of the lysine side chain connected to the nitrogen atom in X (CH2NGP) (3.3 ppm) and the integrationof the same methylene group in X1 (CH2Lys hydrolyzed) (3.0 ppm).
# To confirm the structure of compounds X1 and X2, resulting from hydrolysis of X, the following experiment was realized, in which X (10 mg, 1.72 10^−2 mmol) was reacted with 8 equivalents of NaOD in a total volume of 355 μL of deuterium oxide ([X]=4.8 10^−2 mmol·mL^−1) during 3 days before being acidified with 1M DCl in D2O. In these conditions, almost the totality of compound X is hydrolyzed, the percentage of hydrolysis of compound X being 85% as determined by ^1H NMR as evidence in table 11.
# [2] = tested on: human neonatal skin fibroblasts; settings: for Lysis following bacterial stress at 48 h (OD490 nm): LDH release
# Procedure: The medium was changed every two days by 37° C. preheated fresh medium.
structure (smiles),measurement,setting,value
C[C@H](NC(=O)[C@H](C)NC(=O)[C@@H](N)CCCCNCC(F)(F)C1(O)O[C@H](CO)[C@H](O)[C@H](O)[C@H]1O)C(=O)O.Cl.Cl (stereo partly shown) [Compound 17],% hydrolyzed,"[1]; 2 eq NaOD, 2 h 30, D2O",0%
same,stability towards basic conditions (in words),"[1]; 2 to 8 eq NaOD, 2 h 30, 1H NMR",absence of degradation
same,% hydrolyzed,"[1]; 3 eq NaOD, 2 h 30, D2O",0%
same,% hydrolyzed,"[1]; 4 eq NaOD, 2 h 30, D2O",0%
same,% hydrolyzed,"[1]; 5 eq NaOD, 2 h 30, D2O",0%
same,% hydrolyzed,"[1]; 6 eq NaOD, 2 h 30, D2O",0%
same,% hydrolyzed,"[1]; 7 eq NaOD, 2 h 30, D2O",0%
same,% hydrolyzed,"[1]; 8 eq NaOD, 2 h 30, D2O",0%
same,% hydrolyzed,"[1]; Control, 0 eq NaOD",0%
same,Lysis following bacterial stress at 48 h (OD490 nm),[2]; 5 mg/mL,0.333 ± 0.003 OD490 nm
same,protective effect against bacterial stress (in words),[2]; 5 mg/ml to 15 mg/ml,protective effect on cells against bacterial stress
same,Lysis following bacterial stress at 48 h (OD490 nm),[2]; 10 mg/mL,0.293 ± 0.002 OD490 nm
same,Lysis following bacterial stress at 48 h (OD490 nm),[2]; 15 mg/mL,0.270 ± 0.005 OD490 nm
